From patent US20210386733A1, “LYSINE-SPECIFIC HISTONE DEMETHYLASE INHIBITORS FOR THE TREATMENT OF MYELOPROLIFERATIVE NEOPLASMS” (Imago Biosciences, Inc., priority 2019, published 2021)
Where a name gives a salt, the structure may show the parent alone.

System: patients with high-risk MF
Assay: Phase 1/2A clinical trial of Compound 1 in myelofibrosis (Example 1)
Type: in vivo, human
Source text: A multi-center, open-label study evaluating the safety, tolerability, steady-state pharmacokinetics and pharmacodynamics of Compound 1 administered orally once daily in patients with high-risk MF, including primary myelofibrosis (PMF), post-polycythemia vera myelofibrosis (PPV-MF), and post-essential thrombocythemia myelofibrosis (PET-MF) (collectively referred to as ‘MF’) was initiated as a Phase 1/2A study, and was expanded to a Phase 2b study.
The Phase 1/2A portion of the study assessed: the safety of the original starting dose, 0.25 mg/kg/d; an 85-day duration of treatment with a subsequent washout period of up to 28 days; and, pharmacokinetic and drug concentration measurements. […] With transition to a Phase 2b study, changes supported by the earlier pharmacokinetic and pharmacodynamic studies and safety assessments were implemented, including: an increased starting dose of 0.5 mg/kg/d with larger titration increments; a 168-day (24 week) duration of treatment, with continuous dosing via removal of the washout period; elimination of PK and drug concentration sampling; and, a reduced visit schedule.
This study was conducted at multiple sites. Up to 50 patients, eighteen years of age or older, with high-risk myelofibrosis were treated. The primary objectives included safety and tolerability, pharmacokinetics (PK; Phase 1/2A only) and spleen volume reduction (SVR). […] Key inclusion criteria included: high- or intermediate-2 risk myelofibrosis; per the Investigator's judgment have failed (refractory or resistant to, inadequately controlled by or intolerant of), or are not a candidate for, available approved therapy including ruxolitinib; platelet count≥100K/μL; and, circulating blasts ≤10%.
In the Phase 1/2a portion of the study, patients started at the presumed sub-therapeutic dose of 0.25 mg/kg/d. Dose-adjustments were made weekly (the lifespan of a human platelet) with dose-titration, either upward or downward, contingent on platelet values at the time of evaluation. Upward titrations were made in increments of 0.125 or 0.0625 mg/kg/d as shown below. Downward titrations were made in decrements of 50% of the current dose. […] The titration target platelet count expected to be associated with most efficacious therapeutic effect was ≥50,000 to <100,000/μL (50-100×10^9/L). The Phase 1/2a titration and re-challenge rules based on weekly evaluation of platelet counts are noted below in Table 1.
All but one patient had received one or more prior treatments including ruxolitinib. 48% had PMF, 33% PET-MF, 19% PPV-MF. The median patient age was 65 years (48-89) with 58% males. 48% were classified as high risk (IPSS), the remainder, intermediate risk-2. […] A substantial fraction of the patients had ≥3 mutations. Patients were treated daily for 12 weeks, in accordance with above starting dose and titration rules, followed by a washout period of up to 28 days. Starting platelet counts ranged from about 141 to about 1309 k/μL. Bone marrow biopsies and imaging studies of the abdomen were conducted prior to treatment and during the washout period after 12 weeks of dosing. Grading of myelofibrosis was performed centrally using the 2016 revised World Health Organization classification of myeloid neoplasia (Arber et al., 2016); image reading was also performed centrally. The Myeloproliferative Neoplasm Symptom Assessment Form (MPN-SAF) was self-administered at Baseline and weekly from Day 0 through the End of Study (EoS) Visit. Total symptom scores were derived from this tool. Patients for whom clinical benefit was demonstrable could resume treatment for additional 12-week cycles.

[1] = 13 patients with biopsies, Day 0 to Day 84 or EoT
[2] = of the 3 with Hb>10 g/dL at day 0, day 84
[3] = of the 6 transfusion-independent patients with Hb<10 g/dL
[4] = of the 9 transfusion-dependent patients, day 84

## CN1CCN(C(=O)[C@H](CCCN[C@@H]2C[C@H]2c2ccc(F)cc2)NC(=O)c2ccc(-n3ccnn3)cc2)CC1 [Compound 1, N-[(2S)-5-{[(1R, 2S)-2-(4-fluorophenyl)cyclopropyl]amino}-1-(4-methylpiperazin-1-yl)-1-oxopentan-2-yl]-4-(1H-1,2,3-triazol-1-yl)benzamide, bis-tosylate salt]
[1]
  patients whose bone marrow fibrosis progressed by 1 Grade: 23%
  patients with a stable bone marrow fibrosis score: 62%
  patients with bone marrow fibrosis improvement of ≥1 grade: 15%
At the doses used in this study
  28 days expressed in half-lives of the drug: > 10 half-lives
Day 0 to day 84, BAT as in PERSIST-2 trial, FIG. 3
  spleen volume response (SVR) and total symptom score (TSS) compared with Best Available Treatment (BAT): outperformed the BAT
Evaluable patients N=14, preliminary analysis
  effect on myelofibrosis symptoms: profound effect
Excluding highest and lowest doses
  range of total daily dose needed to achieve a platelet count in the target range: 53 to 90 mg
Excluding highest and lowest doses (4 mg and 100 mg), target 50,000-75,000 platelets per microliter, S.D. 13.8
  mean total daily dose needed to achieve a platelet count in the target range: 78.3 mg
First sixteen patients, assuming an average weight of 75 kg
  mean therapeutic dose per body weight: 0.85 mg/kg/day
Heterogeneous population of MF patients with limited therapeutic options
  overall efficacy on spleen volumes and symptom scores: effective in reducing spleen volumes and substantially improving symptom scores in a majority of patients
human, in vivo
  improvements in symptom scores: generally dose-dependent and rapid
In the course of treatment
  levels of CCL3, IL-6, IL-10, IL-33, IL-28A, IFNβ, IFNα, IFNγ: not elevated in any patient
[2]
  patients with improved Hb (increase of Hb>1 g/dL): 1 patients
  patients with worsened Hb (decrease of Hb>1 g/dL): 2 patients
[3]
  patients who remained stable (Hb): 3 patients
  patients who worsened (became transfusion dependent or Hb drop by >1 g/dL): 2 patients
  patients with improved Hb: 1 patients
Of the 9 transfusion-dependent patients (Hb<10 g/dL), day 84
  patients who became transfusion-independent and had improved Hb of >1 g/dL: 1 patients
[4]
  patients who maintained stable transfusion frequency: 8 patients
  patients with increased transfusion frequency: one
On treatment
  lymphocytes counts: unchanged
  monocyte counts: generally modestly elevated
  peripheral granulocyte counts: lower
  platelet counts: reduced platelet counts in all patients
re-analysis of first sixteen patients
  mean dose needed to achieve and safely maintain the target platelet count (therapeutic dose): 63.8 mg/day
Reversibility of the anti-thrombopoietic effect
  platelet counts after cessation of treatment: rebounded robustly
Six patients, FIG. 10
  percent of F-cells (fetal hemoglobin containing erythrocytes): reduced the percent of F-cells
Week 12
  patients with reduction in symptom score (MPN-10): 79%
  patients with reduction in symptom score by ≥50%: 21%
Week 12, FIG. 4
  inflammatory cytokine S100A9: generally decreased
Week 12, FIG. 5
  inflammatory cytokine RANTES: generally decreased
Week 12, FIG. 6
  inflammatory cytokine IL-8: generally decreased
Week 12, FIG. 7
  circulating growth factor VEGF: generally decreased
Week 12, FIG. 8
  circulating growth factor PDGF-BB: generally decreased
Week 12, evaluable N=14
  patients with a decrease in spleen volume: 50%
Week 24
  patients with a decrease in spleen volume: 75%
  patients with a decrease in spleen volume by 35%: 12.5%
  patients with a decrease in symptom score: 89%
  patients with a decrease in symptom score by ≥50%: 44%
Within 14 days, at the lowest two doses
  patients with improved scores of fatigue: 8 of the first 16 patients
